Data reported in ChEMBL document CHEMBL3244065, “Neuroleptics related to butaclamol. An investigation of the effects of chlorine substituents on the aromatic rings” (J Med Chem, 1978).

Experiments:
Rattus norvegicus [1] = experiment: Neuroleptic activity in ip dosed Sprague-Dawley rat assessed as inhibition of amphetamine-induced stereotyped behaviour administered 15 mins after d-amphetamine challenge; type: functional; conditions: 0.25 h, read-out: MED
Rattus norvegicus [2] = experiment: Neuroleptic activity in ip dosed Sprague-Dawley rat assessed as protection against epinephrine-induced mortality administered 1 hr prior to epinephrine injection; type: functional
Rattus norvegicus [3] = experiment: Neuroleptic activity in ip dosed Sprague-Dawley rat assessed as dose required to decrease the continuous (Sidman) lever-pressing response to <50%; type: functional
Rattus norvegicus [4] = experiment: Neuroleptic activity in ip dosed Sprague-Dawley rat assessed as conditioned active avoidance failure after 30 mins; type: functional; conditions: 0.5 h
Rattus norvegicus [5] = experiment: Toxicity in ip dosed Sprague-Dawley rat assessed as induction of maximum catalepsy; type: organism-based; conditions: in vivo

Compound | minimal effective dose (Rattus norvegicus [1]) [mg/kg] | ED50 (Rattus norvegicus [2]) [mg/kg] | Activity (Rattus norvegicus [3]) [mg/kg] | ED50 (Rattus norvegicus [4]) [mg/kg] | MED (Rattus norvegicus [5]) [mg/kg]
CC(C)[C@@]1(O)CCN2C[C@@H]3c4cc(Cl)ccc4CCc4c(Cl)ccc(c43)[C@H]2C1.Cl | > 20 | > 60 | >5 | – | –
CC(C)[C@@]1(O)CCN2C[C@@H]3c4cccc(Cl)c4CCc4cccc(c43)[C@H]2C1.Cl | 20 | 100 | 20 | > 20 | 100
OCCN1CCN(C2Cc3cc(Cl)ccc3Sc3ccccc32)CC1 (stereo not drawn) | 20 | 0.88 | 2.5 | 4.5 | > 50
CC(C)[C@@]1(O)CCN2C[C@@H]3c4ccc(Cl)cc4CCc4cccc(c43)[C@H]2C1.Cl | 1.25 | 13.9 | 0.62 | 1.1 | 12.5
CN1CCN(C2=Nc3cc(Cl)ccc3Nc3ccccc32)CC1 [CLOZAPINE] | 50 | 2.4 | 7.5 | 6.8 | > 100
CC(C)[C@@]1(O)CCN2C[C@@H]3c4ccccc4CCc4cccc(c43)[C@H]2C1 [DEXCLAMOL] | 1.25 | 15 | 0.5 | 0.64 | 12.5
CC(C)[C@@]1(O)CCN2C[C@@H]3c4ccccc4CCc4c(Cl)ccc(c43)[C@H]2C1.Cl | 10 | 50 | 2.5 | 9 | 50
